Laboratory results taken from article PMC8473290 (Viruses, 2021).
Peptide text beside a SMILES is read from it.

Legend:
[1] = system: HCMV strain Merlin-pAL1502; test: Cell-associated focal spread of Merlin-pAL1502 in HFFs; type: cell-based, Human cytomegalovirus
[2] = system: recent cell-associated clinical HCMV isolates; test: Cell-associated focal spread of recent clinical HCMV isolates in HFF co-culture; type: cell-based, Human cytomegalovirus; conditions: 60 µmol/L, added 1 d p.i., fixed 7 d p.i.
[3] = system: Merlin-pAL1502-UL32EGFP-UL100mCherry; test: Single particle analysis of virion transfer with dual fluorescent Merlin; type: cell-based, Human cytomegalovirus; conditions: 125 µmol/L, added 1 d p.i.
HSV-1 R10.2 = test: Inhibition of cell-free HSV-1 infection of HFFs; type: cell-based, herpes simplex virus 1; conditions: 1 h preincubation, MOI 1, fixed 6 h p.i.
[4] = system: HCMV strain Merlin-pAL1502; test: Reversibility of inhibition of cell-associated spread after peptide removal; type: cell-based, Human cytomegalovirus
HSV-2 R6 = test: Inhibition of cell-free HSV-2 infection of HFFs; type: cell-based, herpes simplex virus 2; conditions: 1 h preincubation, MOI 1, fixed 6 h p.i.
TB40-BAC4 = test: Inhibition of cell-free HCMV infection of HFFs (TB40-BAC4); type: cell-based, Human cytomegalovirus

## CC[C@H](C)[C@H](NC(=O)[C@H](Cc1ccc(O)cc1)NC(=O)[C@@H](NC(=O)[C@H](Cc1c[nH]cn1)NC(=O)[C@H](CCCNC(=N)N)NC(=O)CN)[C@@H](C)CC)C(=O)N[C@@H](Cc1ccc(O)cc1)C(=O)N[C@H](C(=O)N1CCC[C@H]1C(=O)N[C@@H](CC(=O)O)C(=O)N1CCC[C@H]1C(=O)N[C@@H](CC(=O)O)C(=O)N[C@H](C(=O)N[C@@H](C)C(=O)N[C@@H](Cc1ccccc1)C(=O)N[C@H](C(=O)N1CCC[C@H]1C(=O)N[C@@H](CC(C)C)C(=O)NCC(=O)N[C@@H](CCSC)C(=O)N[C@H](C(=O)N[C@@H](CC(=O)O)C(=O)N[C@@H](Cc1ccc(O)cc1)C(=O)N[C@@H](CC(C)C)C(=O)N[C@H](C(=O)N[C@H](C(=O)N[C@H](C(=O)N[C@@H](CCC(=O)O)C(=O)N[C@@H](CC(=O)O)C(=O)N[C@@H](CC(=O)O)C(=O)O)C(C)C)[C@@H](C)CC)C(C)C)[C@@H](C)O)C(C)C)C(C)C)C(C)C [GD30] (H-GRHIYIYVPDPDVAFVPLGMTDYLVIVEDD-OH; N-terminus and C-terminus assumed)
[1]; 60 µmol/L, added 1 d p.i., fixed 7 d p.i.
  Reduction of focal growth compared with GT40: to a similar extent but not more than GT40
[1]; 125 µmol/L, applied 42 h p.i., MOI 0.005
  Inhibition of cell-associated spread: almost completely inhibits
[2]
  Reduction of focal growth compared with GT40: to a similar extent but not more than GT40
[3]; MOI 0.05, versus DMSO control, 10 frames
  Reduction of the total number of particles transferred: 78%
[3]; MOI 0.05, untreated control 86%
  Percentage of naked capsids: 7%
HSV-1 R10.2
  Extent of inhibition of cell-free virus: completely
[4]; 125 µmol/L from 42 h p.i. until fixation at day 8
  Focus size under permanent treatment: almost exclusively single infected cells
[4]; 125 µmol/L from 42 h to 5 d p.i., then 3 d without peptide
  Reversibility of the inhibitory effect after peptide removal: completely reversible
[4]; 125 µmol/L from 42 h to 5 d p.i., withdrawn, fixed 8 d p.i., untreated control up to 50
  Mean focus size after intermittent treatment: around 15 infected cells per focus
HSV-2 R6
  Extent of inhibition of cell-free virus: completely
TB40-BAC4; 2 h preincubation with virus, MOI 1, fixed next day
  Antiviral effect against cell-free virus: effective against cell-free virus
TB40-BAC4; cell-free virus, 2 h preincubation, MOI 1
  Hill slope of the dose-response curve: −1.67
